Like-named read-outs stand apart in the source and are kept apart here.
What was measured:
CpCDPK1 = CpCDPK1 (Cryptosporidium parvum (strain Iowa II), UniProt A3FQ16); test: biochemical; assay type: biochemical; settings: read-out: IC50 (μM) CpCDPK1
PfCDPK4 = PfCDPK4 (Plasmodium falciparum (isolate 3D7), UniProt Q8IBS5); test: biochemical; settings: for inhibition at 3 µM: read-out: PfCDPK4 (% inhibition @ 3 uM)
PfCDPK1 = PfCDPK1 (Plasmodium falciparum (isolate 3D7), UniProt P62344); test: biochemical; settings: for inhibition at 3 µM: read-out: PfCDPK1 (% inhibition @ 3 uM)
[1] = system: human lymphocyte (CRL8155); test: Growth inhibition of human cell line CRL8155; settings: 10 μM
[2] = system: human promyelocytic leukemia (HL-60); test: Growth inhibition of human cell line HL-60; settings: 10 μM

Sequence of CpCDPK1 (A3FQ16 1-538): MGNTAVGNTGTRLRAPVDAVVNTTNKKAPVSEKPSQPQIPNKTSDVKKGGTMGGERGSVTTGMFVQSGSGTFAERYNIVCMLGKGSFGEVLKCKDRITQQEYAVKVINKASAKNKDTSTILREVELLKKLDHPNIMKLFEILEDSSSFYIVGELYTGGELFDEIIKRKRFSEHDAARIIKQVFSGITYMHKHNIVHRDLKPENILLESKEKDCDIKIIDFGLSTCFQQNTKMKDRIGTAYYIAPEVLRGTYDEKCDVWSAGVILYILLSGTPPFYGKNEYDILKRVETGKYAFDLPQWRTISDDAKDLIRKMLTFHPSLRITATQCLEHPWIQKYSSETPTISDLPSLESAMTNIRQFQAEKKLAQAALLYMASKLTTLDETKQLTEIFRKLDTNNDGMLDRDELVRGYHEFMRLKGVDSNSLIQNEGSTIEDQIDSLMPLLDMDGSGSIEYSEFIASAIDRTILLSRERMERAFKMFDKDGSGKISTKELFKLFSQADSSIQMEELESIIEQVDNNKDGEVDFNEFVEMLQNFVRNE

## Cc1cccc(-c2nn(C(C)C)c3ncnc(N)c23)c1 [Compound 7g, 1-isopropyl-3-m-tolyl-1H-pyrazolo[3,4-d]pyrimidin-4-amine]
CpCDPK1
  IC50: 0.114 µM
PfCDPK4
  inhibition at 3 µM: 64%
PfCDPK1
  inhibition at 3 µM: 72%

## COc1ccc(-c2nn(C(C)C)c3ncnc(N)c23)cc1 [Compound 7j, 1-isopropyl-3-(4-methoxyphenyl)-1H-pyrazolo[3,4-d]pyrimidin-4-amine]
CpCDPK1
  IC50: 0.41 µM
PfCDPK4
  inhibition at 3 µM: 30%
PfCDPK1
  inhibition at 3 µM: 87%

## COc1ccc(-c2nn(C(C)C)c3ncnc(N)c23)cc1C [Compound 7m, 1-isopropyl-3-(4-methoxy-3-methylphenyl)-1H-pyrazolo[3,4-d]pyrimidin-4-amine]
CpCDPK1
  IC50: 0.017 µM

## Cc1cccc2[nH]c(-c3nn(C(C)C)c4ncnc(N)c34)cc12 [Compound 25, 1-isopropyl-3-(4-methyl-1H-indol-2-yl)-1H-pyrazolo[3,4-d]pyrimidin-4-amine]
[1]
  Cell Toxicity CRL8155, % at 10 μM: 38% toxicity at
PfCDPK4
  EC50: 579 nM
[2]
  Cell Toxicity HL60, % at 10 μM: 47% toxicity at

## Nc1ncnc2c1c(-c1ccc3cc(OCc4ccc(Cl)cc4)ccc3c1)nn2CC1CCNCC1 [Compound 39, 3-(6-(4-chlorobenzyloxy)naphthalen-2-yl)-1-(piperidin-4-ylmethyl)-1H-pyrazolo[3,4-d]pyrimidin-4-amine]
PfCDPK4
  EC50: 9.2 nM
PfCDPK1
  EC50: 21.1 nM

## CC(C)COc1ccc2cc(-c3nn(C(C)C)c4ncnc(N)c34)ccc2c1 [Compound 43, 3-(6-isobutoxynaphthalen-2-yl)-1-isopropyl-1H-pyrazolo[3,4-d]pyrimidin-4-amine]
PfCDPK4
  EC50: 1200 nM
PfCDPK1
  EC50: 278 nM

## CC(C)n1nc(-c2ccc3cc(OCc4cccc(Cl)c4)ccc3c2)c2c(N)ncnc21 [Compound 47, 3-(6-(3-chlorobenzyloxy)naphthalen-2-yl)-1-isopropyl-1H-pyrazolo[3,4-d]pyrimidin-4-amine]
CpCDPK1; Table 8
  IC50: 0.272 µM
PfCDPK4
  EC50: 1430 nM
PfCDPK1
  EC50: 1290 nM

## Cc1ccc(C)c(COc2ccc3cc(-c4nn(C(C)C)c5ncnc(N)c45)ccc3c2)c1 [Compound 48, 3-(6-(2,5-dimethylbenzyloxy)naphthalen-2-yl)-1-isopropyl-1H-pyrazolo[3,4-d]pyrimidin-4-amine]
PfCDPK4
  EC50: > 3000 nM
PfCDPK1
  EC50: 2280 nM

## Cc1ccccc1COc1ccc2cc(-c3nn(C(C)C)c4ncnc(N)c34)ccc2c1 [Compound 49, 1-isopropyl-3-(6-(2-methylbenzyloxy)naphthalen-2-yl)-1H-pyrazolo[3,4-d]pyrimidin-4-amine]
PfCDPK4
  EC50: 2350 nM
PfCDPK1
  EC50: 688 nM

## Cc1ccc(C(F)(F)F)cc1COc1ccc2cc(-c3nn(C(C)C)c4ncnc(N)c34)ccc2c1 [Compound 50, 1-isopropyl-3-(6-(2-methyl-5-(trifluoromethyl)benzyloxy)naphthalen-2-yl)-1H-pyrazolo[3,4-d]pyrimidin-4-amine]
PfCDPK4
  EC50: > 3000 nM
PfCDPK1
  EC50: 2090 nM

## CC(C)n1nc(-c2ccc3cc(OCc4ccc(CC(F)(F)F)c(Cl)c4)ccc3c2)c2c(N)ncnc21 [Compound 51, 3-(6-(3-chloro-4-(2,2,2-trifluorethyl)benzyloxy)naphthalen-2-yl)-1-isopropyl-1H-pyrazolo[3,4-d]pyrimidin-4-amine]
PfCDPK4
  EC50: 260 nM
PfCDPK1
  EC50: 1600 nM

## CC(C)n1nc(-c2ccc3cc(OCc4cc(F)cc(Cl)c4)ccc3c2)c2c(N)ncnc21 [Compound 52, 3-(6-(3-chloro-5-fluorobenzyloxy)naphthalen-2-yl)-1-isopropyl-1H-pyrazolo[3,4-d]pyrimidin-4-amine]
PfCDPK4
  EC50: 1230 nM
PfCDPK1
  EC50: 1070 nM

## CC(Oc1ccc2cc(-c3nn(C(C)C)c4ncnc(N)c34)ccc2c1)c1ccccc1 (stereo not drawn) [Compound 53, 1-isopropyl-3-(6-(1-phenylethoxy)naphthalen-2-yl)-1H-pyrazolo[3,4-d]pyrimidin-4-amine]
PfCDPK4
  EC50: 1640 nM
PfCDPK1
  EC50: 532 nM

## CC(C)n1nc(-c2ccc3cc(OCc4ccc(C(C)(C)C)cc4)ccc3c2)c2c(N)ncnc21 [Compound 54, 3-(6-(4-tert-butylbenzyloxy)naphthalen-2-yl)-1-isopropyl-1H-pyrazolo[3,4-d]pyrimidin-4-amine]
PfCDPK4
  EC50: 438 nM
PfCDPK1
  EC50: 47.8 nM

## CC(C)n1nc(-c2ccc3cc(OCc4ccncc4)ccc3c2)c2c(N)ncnc21 [Compound 55, 1-isopropyl-3-(6-(pyridin-4-ylmethoxy)naphthalen-2-yl)-1H-pyrazolo[3,4-d]pyrimidin-4-amine]
PfCDPK4
  EC50: 175 nM
PfCDPK1
  EC50: 216 nM

## CC(C)n1nc(-c2ccc3cc(OCc4ccc(Cl)cc4)ccc3c2)c2c(N)ncnc21 [Compound 56, 3-(6-(4-chlorobenzyloxy)naphthalen-2-yl)-1-isopropyl-1H-pyrazolo[3,4-d]pyrimidin-4-amine]
CpCDPK1; Table 8
  IC50: 0.105 µM
PfCDPK4
  EC50: 888 nM
PfCDPK1
  EC50: 1140 nM

## Cn1ccc2cc(-c3nn(CC4CCNCC4)c4ncnc(N)c34)ccc21 [Compound 57, 3-(1-methyl-1H-indol-5-yl)-1-(piperidin-4-ylmethyl)-1H-pyrazolo[3,4-d]pyrimidin-4-amine]
PfCDPK4
  EC50: 243 nM
PfCDPK1
  EC50: 705 nM

## CN(C)c1ccc2cc(-c3nn(CC4CCNCC4)c4ncnc(N)c34)ccc2n1 [Compound 68, 6-(4-amino-1-(piperidin-4-ylmethyl)-1H-pyrazolo[3,4-d]pyrimidin-3-yl)-N,N-dimethylquinolin-2-amine]
CpCDPK1; Table 8
  IC50: > 3 µM

## N#Cc1cccc(-c2ccc(-c3nn(CC4CCNCC4)c4ncnc(N)c34)cc2)c1 [Compound 74, 4′-(4-amino-1-(piperidin-4-ylmethyl)-1H-pyrazolo[3,4-d]pyrimidin-3-yl)biphenyl-3-carbonitrile]
PfCDPK4
  EC50: 1010 nM
PfCDPK1
  EC50: 347 nM

## COC(=O)Nc1nc2ccc(C(O)c3ccccc3)cc2[nH]1 (stereo not drawn) [Compound 82]
PfCDPK4
  EC50: > 3000 nM
PfCDPK1
  EC50: > 3000 nM

## CC(C)n1nc(-c2ccc3cc(OC(=O)c4cccc(Cl)c4)ccc3c2)c2c(N)ncnc21 [Compound 85]
PfCDPK4
  EC50: 479 nM
PfCDPK1
  EC50: 229 nM

## O=C(NCCO)Nc1nc2ccc(C(=O)c3ccccc3)cc2[nH]1 [Compound 90]
[1]
  Cell Toxicity CRL8155, % at 10 μM: <30% at 10 μM
[2]
  Cell Toxicity HL60, % at 10 μM: <30% at 10 μM

## Nc1ncnc2c1c(I)nn2CC1CCNCC1 [Compound 98]
[1]
  Cell Toxicity CRL8155, % at 10 μM: <30% at 10 μM
[2]
  Cell Toxicity HL60, % at 10 μM: <30% at 10 μM

## Nc1ncnc2c1c(-c1ccc(-c3ccccc3)cc1)nn2CC1CCNCC1 [Compound 100]
PfCDPK4
  EC50: 908 nM
PfCDPK1
  EC50: 74.9 nM

## NCCCCCC(=O)Nc1nc2ccc(C(=O)c3ccccc3)cc2[nH]1 [Compound 105]
[1]
  Cell Toxicity CRL8155, % at 10 μM: <30% at 10 μM
[2]
  Cell Toxicity HL60, % at 10 μM: <30% at 10 μM

## O=C(CCCC1CCNCC1)Nc1nc2ccc(C(=O)c3ccccc3)cc2[nH]1 [Compound 115]
[1]
  Cell Toxicity CRL8155, % at 10 μM: <30% at 10 μM
[2]
  Cell Toxicity HL60, % at 10 μM: <30% at 10 μM

## CC(C)COc1ccc2cc(-c3nn(C(C)(C)C)c4ncnc(N)c34)ccc2c1 [Compound 130]
PfCDPK4
  EC50: > 3000 nM
PfCDPK1
  EC50: 2950 nM

## CC(C)(C)n1nc(-c2ccc3oc(-c4ccccc4)nc3c2)c2c(N)ncnc21 [Compound 131]
PfCDPK4
  EC50: > 3000 nM
PfCDPK1
  EC50: 266 nM

## CC(C)(C)n1nc(-c2ccc(-c3nn(C(C)(C)C)c4ncnc(N)c34)cc2)c2c(N)ncnc21 [Compound 141]
PfCDPK4
  EC50: 2030 nM
  inhibition at 3 µM: 55%
PfCDPK1
  EC50: 1470 nM
  inhibition at 3 µM: 92%
